{
  "source": "patent US20200010903A1",
  "about": "“AAV-Mediated Direct In vivo CRISPR Screen in Glioblastoma” (YALE UNIVERSITY, priority 2017, published 2020)",
  "format_in_all_cases": "cell-based, mouse",
  "key": {"Rb1 GBM cells": {"system": "Rb1 GBM cells", "test": "RNA-seq differential expression, TMZ vs DMSO", "conditions": "1 mM TMZ vs DMSO, 48 h", "method": "(§1) Temozolomide (TMZ) treatment, Cell viability assay, and RNAseq: After 7-9 days' culture under puromycin selection, lentiviruses-infected Nf1 and Rb1 knockout tumor cells were plated in triplicates into 96-well plate at a density of 2.5×10^3 cells per well, and ˜5×10^6 cells were collected at the same time and used for cutting efficiency analysis. One day after plating, either TMZ or DMSO was added at a concentration of 10 μM, 100 μM, 500 μM, 1 mM, and 2 mM. After 3 days of drug/vehicle treatment, cell viability was measured using CellTiter Glo (Promega) according to the manufactures' protocol. Briefly, the CellTiter Glo was equilibrated at room temperature for 1 h before use. The media of 96-well plates was aspirated, and then 50 μL fresh DMEM+10% FBS and 50 μL CellTiter Glo was added. The luminescent signals were readout using EnVision plate reader (PerkinElmer). For RNAseq samples preparation, cell lines harboring specific gene knockouts were cultured for 7-9 days under the selection pressure of puromycin, and then plated into 6-well plates at a density of 2×10^5 cells per well in triplicates. 24 h after plating, 1 mM TMZ or DMSO in fresh DEME+10% FBS was added and cultured for another 48 h. Then, cellular RNA of control or treated cells were extracted by adding 350 μL TRIzol Reagent (Invitrogen) directly into 6-well plates to lyse the cells, followed by gently shaking the plates and incubation for 5-10 min to complete and lysis and homogenization. Then, 70 μL chloroform was added, vigorously mixed, and centrifuged at 16,000 g for 15 min. Transfer the RNA containing aqueous phase to a new tube and further purified using RNeasy mini kit (Qiagen). After eluting RNA from column using Nuclease free water, the concentrations of sample RNA were normalized into 150-300 ng/uL for RNAseq.\n(§2) Transcriptome profiling of different driver combinations in the presence and absence of chemotherapy: Mixtures of five sgRNAs targeting each gene were cloned as sgRNA minipool into the same astrocyte-specific AAV-CRISPR vector. After packaging, AAV minipools were stereotaxically injected into the lateral ventricle of LSL-Cas9 mice. Cell lines were derived from mouse GBMs by single-cell isolation, plating and culture in DMEM media. Additional driver mutations were introduced by lentiCRISPR where applicable. GBM cells with different drivers were treated with DMSO or TMZ for 48 h, and harvested for mRNA-seq for transcriptome profiling. Briefly, total RNA was extracted from cancer cells derived from AAV-CRISPR minipools induced GBM treated with DMSO or TMZ, using commercially available kits (Qiagen/Thermofisher). PolyA-mRNA library was constructed using Illumina TruSeq mRNA library prep kit, and sequenced on Illumina Hiseq 2500 and/or Hiseq 4000 platform.\n(§3) RNA-seq differential expression analysis: Strand-specific single-end RNA-seq read files were analyzed to obtain transcript level counts using Kallisto, with the settings --rf-stranded -b 100. The counts were subsequently passed to the tximport R package to collapse to gene level counts. Pairwise differential expression analysis between groups was then performed using edgeR with default settings."}, "Rb1; Pten GBM cells": {"system": "Rb1; Pten GBM cells", "test": "RNA-seq differential expression, TMZ vs DMSO", "conditions": "1 mM TMZ vs DMSO, 48 h", "method": "as §1, §2, §3"}, "Rb1; Zc3h13 GBM cells": {"system": "Rb1; Zc3h13 GBM cells", "test": "RNA-seq differential expression, TMZ vs DMSO", "conditions": "1 mM TMZ vs DMSO, 48 h", "method": "as §1, §2, §3"}, "[1]": {"system": "Rb1, Rb1; Pten, and Rb1; Zc3h13 GBM cells", "test": "RNA-seq TMZ vs DMSO, overlap of differentially expressed genes between genotypes", "method": "as §1\nas §2, with “Briefly, total RNA was extracted from cancer cells derived from AAV-CRISPR minipools induced GBM treated with DMSO or TMZ, using commercially available kits (Qiagen/Thermofisher). PolyA-mRNA library was constructed using Illumina TruSeq mRNA library prep kit, and sequenced on Illumina Hiseq 2500 and/or Hiseq 4000 platform.” left out\nRNA-seq differential expression analysis: Strand-specific single-end RNA-seq read files were analyzed to obtain transcript level counts using Kallisto, with the settings --rf-stranded -b 100. […]"}, "[2]": {"conditions": "shared by Rb1, Rb1, Pten, Rb1, Zc3h13"}},
  "data": [
    {"smiles": "Cn1nnc2c(C(N)=O)ncn2c1=O", "note": "[TMZ, temozolomide]", "values": [
      {"measurement": "genes significantly higher in DMSO-treated cells (TMZ-reduced genes)", "setting": "Rb1 GBM cells", "result": 332, "unit": "genes"},
      {"measurement": "genes significantly higher in TMZ-treated cells (TMZ-induced genes)", "setting": "Rb1 GBM cells; adjusted p<0.05, log fold change ≥1 or ≤−1", "result": 352, "unit": "genes"},
      {"measurement": "genes significantly higher in DMSO-treated cells", "setting": "Rb1; Pten GBM cells", "result": 313, "unit": "genes"},
      {"measurement": "genes significantly higher in TMZ-treated cells", "setting": "Rb1; Pten GBM cells", "result": 345, "unit": "genes"},
      {"measurement": "genes significantly higher in DMSO-treated cells", "setting": "Rb1; Zc3h13 GBM cells", "result": 166, "unit": "genes"},
      {"measurement": "genes significantly higher in TMZ-treated cells", "setting": "Rb1; Zc3h13 GBM cells", "result": 703, "unit": "genes"},
      {"measurement": "genes significantly reduced upon TMZ treatment in Rb1; Zc3h13 and Rb1; Pten cells, but not in Rb1 cells", "setting": "[1]", "result": 37, "unit": "genes"},
      {"measurement": "genes upregulated upon TMZ treatment in Rb1; Zc3h13 and Rb1; Pten cells, but not in Rb1 cells", "setting": "[1]", "result": 60, "unit": "genes"},
      {"measurement": "genes downregulated among all 3 genotypes upon TMZ treatment", "setting": "[1]; [2]", "result": 69, "unit": "genes"},
      {"measurement": "genes upregulated in all 3 groups upon TMZ treatment", "setting": "[1]; [2]", "result": 42, "unit": "genes"}
    ]}
  ]
}
